Source: patent US12721912B2, “Radiopharmaceutical compositions for actinium in targeted radionuclide therapy” (Curium US LLC, priority 2024, dated 2026)
Like-named read-outs stand apart in the source and are kept apart here.

Assays:
patients with mCRPC [1] = conditions: cited from earlier work
[2] = Process A / process B injection stored at 5, 22.5, 32.5 and 40° C.: radiochemical purity by radio-TLC (Tables 21, 22); format: physicochemical; conditions: 5-40° C.
Method: The radio-TLC method was performed as follows: 5 μl or 10 μl of the sample was spotted onto the application line (1.5 cm from the lower edge of the plate) of a TLC plate (Merck Silica Gel 60 F254, plate size 20×100 mm). The TLC plate was developed in a TLC chamber using 0.1 M citric acid (adjusted to pH 5) as mobile phase. The plate was removed from the chamber when the eluent front reached 7.5 cm distance from the application line. The plates were analyzed with a radio-TLC scanner after secular equilibrium between ^225Ac and daughter nuclides was reached (minimum of 7 hours). […]
In process B, radiolabeling is performed in 11.3 mg/ml sodium ascorbate solution and the 0.04 M HCl is neutralized by adding 1 ml of 0.04 M NaOH solution into the reactor prior to labeling. The final formulation in process B is prepared to an intended radioactivity concentration by diluting with 11.3 mg/ml sodium ascorbate solution.
To compare the processes, ^225Ac-PSMA I&T injection was prepared at around 1 mCi scale using both processes. […] Radioactivity concentration was 468 kBq/ml in process A and 969 kBq/ml in process B. […]
The purity of ^225Ac-PSMA I&T samples was analyzed by the radio-TLC and HPLC fraction collection methods described previously at different time points.

[3] = Metal scavenger (DTPA) formulations: radiochemical stability by radio-TLC at 40° C. (Table 17); format: physicochemical; conditions: 11.3 mg/ml sodium ascorbate formulation, 0.0005-0.01 mg/ml DTPA
Method: The mixture was then divided into four samples which were diluted with suitable amount WFI and DTPA solution to achieve concentrations of 0.0005 mg/ml, 0.001 mg/ml, 0.005 mg/ml, and 0.01 mg/ml of DTPA in the final formulations. […] The samples were kept at 40° C.

patients with mCRPC [4] = conditions: cited from earlier work; remark: listed apart in the source
[5] = cited from earlier work
[6] = subgroup of 11 patients with prior ^177Lu-PSMA treatment
[7] = subgroup with prior ^177Lu-PSMA radioligand therapy

(25)-2-[[(1S)-1-carboxylato-5-[[8-[[(5R)-5-carboxylato-5-[[(2R)-2-[[(2R)-2-[[(4R)-4-carboxylato-4-[4,7,10-tris(carboxylatomethyl)-1,4,7,10-tetrazacyclododec-1-yl]butanoyl]amino]-3-(4-hydroxy-3-iodophenyl)propanoyl]amino]-3-phenylpropanoyl]amino]pentyl]amino]-8-oxooctanoyl]amino]pentyl]carbamoylamino]pentanedioate; hydron; actinium-225(3+) [^225Ac-PSMA I&T]
Biochemical response PSA50 (patients with mCRPC [1]; 1 patient, 8 MBq per cycle): 100% | Major toxicity (patients with mCRPC [1]; 1 patient, 8 MBq per cycle): xerostomia | Main TAT-related side effect (patients with mCRPC [1]; already preexisting after 10 cycles of RLT): grade 2 xerostomia | Hematological side effects (patients with mCRPC [1]; human, in vivo): No TAT-related grade 3/4 hematological side effects | Response (patients with mCRPC [1]; two cycles after failure of ^177Lu-PSMA-617): encouraging response | Radiochemical purity by the radio-TLC method after 120-hour time point [2]: greater than 98% | Effect of DTPA on the stability [3]: significantly reduce the stability | Grade 3 anemia after TAT (patients with mCRPC [4]; 2 of them with grade 2 anemia at baseline): 3 of the 14 patients | Biochemical response PSA50 (patients with mCRPC [4]; 14 patients, 7.8 MBq per cycle): 50% | Grade 1 nephrotoxicity (patients with mCRPC [4]; 14 patients, FIG. 13): one | Hematologic toxicity (patients with mCRPC [4]; 14 patients, FIG. 13): mild | Acute toxicity during hospitalization (patients with mCRPC [4]; 14 patients): No acute toxicity | Best PSA response after TAT (PSA decline ≥50%) (patients with mCRPC [4]; 14 patients): 7 patients | Grade 3 leukopenia (patients with mCRPC [4]; 14 patients): 1 patient | Major toxicity (patients with mCRPC [4]; 14 patients): xerostomia | Newly diagnosed grade 1 or 2 xerostomia after TAT (patients with mCRPC [4]; 14 patients): 5 patients | No PSA decline at any time (patients with mCRPC [4]; 14 patients): Three | No xerostomia at all (patients with mCRPC [4]; 14 patients): One | PSA decline of any amount (patients with mCRPC [4]; 14 patients): 11 patients | Preexisting xerostomia after ^177Lu-PSMA, no worsening after TAT (patients with mCRPC [4]; 14 patients): Eight | Any PSA decline (patients with mCRPC [4]; [6]): 8 patients | PSA decline of at least 50% (patients with mCRPC [4]; [6]): 5 patients | Any PSA decline (patients with mCRPC [4]; [7]): 73% | PSA decline ≥50% (patients with mCRPC [4]; [7]): 45% | Absorbed dose, left kidney ([5]; 8.1 MBq, SPECT at 24 h p. i.): 0.18 SV(RBE=5)MBq | Absorbed dose, right kidney ([5]; 8.1 MBq, SPECT at 24 h p. i.): 0.17 SV(RBE=5)MBq | Absorbed dose, small lesion in the right hip ([5]; human, in vivo): 0.26 SV(RBE=5)MBq
